{"source": "patent US11761894B2", "about": "“Silicon-rhodamine fluorescent probe containing hydrophobic group and use thereof” (AJOU UNIVERSITY INDUSTRY—ACADEMIC COOPERATION FOUNDATION, priority 2019, dated 2023)", "key": {"[1]": {"test": "Photophysical properties (excitation/emission wavelength, absolute quantum yield, fluorescence intensity in PBS)", "format": "physicochemical", "method": "All reactions were carried out under an atmosphere of nitrogen or argon in air-dried glassware with magnetic stirring. Air- and/or moisture-sensitive liquids were transferred with syringe. Organic solutions were concentrated by rotary evaporation at 25-60° C. at 15-30 torr. All solvents and common materials were purchased from suppliers and used without further purification. Column chromatography was carried out as “Flash Chromatography” using Biotage MPLC machine. ^1H NMR and ^13C NMR data were recorded on an JEOL ECZ-600R Magnetic Resonance System (600 MHz) in Ajou University. Recorded shifts are reported in parts per million (6): Chemical shift, multiplicity (s=singlet, d=doublet, t=triplet, q=quartet, m=multiplet, br=broad), coupling constant (J, Hz) and integration. Low resolution mass spectrometry (LRMS) was obtained by LC/MS system, Finnigan MSQplus Surveyer (Thermo Scientific) or 6120 Quadrupole LC/MS (Agilent Technologies). The progress of reaction was monitored using thin layer chromatography (TLC) (silica gel 60, F254 0.25 mm), and components were visualized by observation under UV light (254 and 365 nm) or by treating the TLC plates with Phosphonolybdic acid (PMA), KMnO4, or ninhydrin followed by heating. Cell culture reagents including fatal bovine serum, culture media, and antibiotic-antimycotic solution were purchased from GIBCO. MitoTracker Green, and Hoechst were purchased from Invitrogen. The culture dish and glassbottom dish were purchased from CORNING, and SPL. All spectra experiments were performed in a 1×1 cm quartz cuvette. Fluorescence emission spectra were recorded on JASCO FP-8200 spectrofluorometer, and UV absorption spectra were recorded on JASCO V-670 spectrophotometer. Absolute quantum yield was measured by QE-2000 (Otsuka Electronics)."}, "[2]": {"system": "Hep3B cells", "test": "Co-staining with Hoechst and Lysotracker Red in Hep3B cells", "format": "cell-based, human", "settings": "1 μM, 1 h", "method": "Liver cancer Hep3B cells were incubated with Hoechst (0.01 μg/ml), Lysotracker red (1 μM), and SiR-Mito 8 (1 μM) for 1 h. After washing 3 times with fresh media, fluorescence live cell images were acquired with a LEICA DMi8 microscope (Left). […] Scale bar: 50 μm.\nTo verify the mitochondrial specificity of the SiR-Mito 8 probe, Hep3B human cancer cells were co-stained with a nuclear and a lysosomal tracer, in addition to SiR-Mito 8.\nTo this end, 6.0×10^4 human HCC cell line Hep3B cells were seeded on confocal dish and incubated for 2 days. After 2 days, Hep3B cells were incubated with Hoechst, 1 μM Lysotracker Red, and 1 μM SiR-Mito 8 contained media for 1 h. After the incubation, Hep3B cells were washed with cell culture media for three times and observed with inverted fluorescence microscope (DMi8, LEICA)."}, "[3]": {"system": "HeLa, Hep3B, HepG2 and Raw 264.7 cells", "test": "Cytotoxicity test (mitochondrial respiration viability assay, CellTiter 96 Aqueous One)", "format": "cell-based, human; mouse", "settings": "up to the 24 hr time point, moderate dose (less than 1 μM)", "method": "HeLa, Hep3B, HepG2 and Raw 264.7 cells were incubated with SiR-Mito 8, concentration range from 0.25 μM to 10 μM, for 1, 4, 12, and 24 h. Viability of the cells was normalized by DMSO control.\nIn order to use SiR-Mito 8 as a potential NIR fluorescent tracer for mitochondrial staining, cytotoxicity of the probes was evaluated. HeLa, Hep3B, HepG2 and Raw 264.7 cells were incubated with SiR-Mito 8 at various concentrations (from 0.25 to 10.0 μM) and cytotoxicity was measured by a mitochondrial respiration viability assay.\nSpecifically, HeLa human cervical cancer cells, Hep3B and HepG2 human hepatocellular carcinoma cells, and Raw264.7 mouse macrophage cells were seeded into 96-well cell culture plates per well and allowed to adhere to the plates overnight. The cells were incubated with cell culture media containing each concentration of SiR-Mito 8 (0.25 μM to 10 μM) for 1, 4, 12 or 24 h. After incubation, CellTiter 96® Aqueous One Solution Cell Proliferation Assay (Promega) was added into each well. After 2 h, 490 nm absorption was measured with Cytation 3 microplate reader (BioTek). Cytotoxicity of SiR-Mito 8 was tested in triplicate in a single experiment, with each experiment being repeated at least three times."}, "[4]": {"system": "Hep3B liver cancer cells vs L02 or Chang normal liver cells", "test": "Comparison of fluorescence intensity between normal cells and cancer cells", "format": "cell-based, human", "settings": "1 μM, 1 h", "method": "(a) Cells were incubated with full growth media containing SiR-Mito 8 (1 μM) and Hoechst dye (0.01 μg/ml) for 1 h. The cells were washed 3 times with growth media and observed with a LEICA DMi8 fluorescent microscope. […] (b) Quantification of the fluorescence intensity of SiR-Mito 8 in L02, Chang liver and in Hep3B cells. Scale bar: 50 μm.\nTherefore, the present inventors envisioned that SiR-Mito 8 could differentiate cancer cells from normal cells without involving ligand conjugation. For fluorescent tumor imaging, human liver cancer Hep3B cells and the human hepatocyte line L02 were incubated with 1.0 μM SiR-Mito 8 for 1 hour, washed three times with cell growth media, and imaged using a LEICA DMi8 fluorescence microscope.\nSpecifically, Hep3B human liver cancer cells were cultured in Dulbecco's modified eagle media (DMEM, GIBCO) containing 10% fetal bovine serum (FBS, GIBCO) and 1% penicillin (GIBCO), and L02 or Chang human liver normal cells were cultured in Roswell Park Memorial Institute (RPMI, CAPRICORN) 1640 with L-Glutamine containing 10% FBS (GIBCO) and 1% Penicillin (HyClone) at 37° C. in a humidified incubator with 5% CO2. For the fluorescence microscope imaging, cells were harvested using TrypLE™ Express (GIBCO) and resuspended in fresh culture medium. […] Cells were washed with cell culture media for three times and observed with inverted fluorescence microscope (DMi8, LEICA)."}}, "note": "“Also recorded” adds a separate entry of the source.", "data": [{"substance": "N-(10-(5-((cyclooctylmethyl) carbamoyl)-2-methylphenyl)-7-(dimethylamino)-5,5-dimethyldibenzo[b,e]silin-3(5H)-ylidene)-N-methylmethanaminium [SiR-Mito 8]", "values": [{"measurement": "Em (emission wavelength)", "setting": "[1]", "result": 668, "unit": "nm"}, {"measurement": "Ex (excitation wavelength)", "setting": "[1]", "result": 651, "unit": "nm"}, {"measurement": "Φ (quantum yield)", "setting": "[1]; absolute quantum yield", "result": 0.33}, {"measurement": "Mitochondrial specificity versus lysosome (Lysotracker Red co-staining)", "setting": "[2]", "result": "high mitochondrial specificity; also recorded: did not localize to other organelle such as lysosome"}, {"measurement": "Cytotoxicity", "setting": "[3]", "result": "no acute cytotoxicity"}, {"measurement": "Fluorescence intensity in cancer cells versus normal cells", "setting": "[4]", "result": "higher fluorescence intensity than normal cells"}]}]}
